The source of these data is US20230349922A1, “H2 Blockers Targeting Liver Macrophages for the Prevention and Treatment of Liver Disease and Cancer” (Université de Strasbourg, priority 2020, published 2023).

SMILES strings stand for the structures.

In the assay the test system is patient-derived Kupffer cells. The experiment in a line: Cytokine expression by qRT-PCR in M1 differentiated patient-derived Kupffer cells. The class given is cell-based, human. To be noted: Kupffer cells isolated from patient tissues, LPS + IFNγ, nizatidine 30 μM 48 hours. How it is done: Real-Time qRT-PCR. cDNAs were synthetized by reverse transcription using SuperScript III First-Strand Synthesis SuperMix (Life Technologies). Expression of […] IL6, TNFα and IL1β was analyzed by quantitative real-time PCR using TaqMan Gene Expression Assays (Thermo Fisher Scientific) on the CFX96 Touch Real-Time PCR Detection System PCR system (Bio-Rad). Expression of human CCL2 and TGF was analyzed using iTaq™ Universal SYBR® Green Supermix (Bio-Rad). The 2^−ΔCT method was used for relative quantification (Schmittgen and Livak, Nature Protoc., 2008, 3: 1101-1108) of mRNA with normalization to 18S. The 2^−ΔCT method was used for relative quantification (Schmittgen and Livak, Nature Protoc., 2008, 3: 1101-1108) of mRNA with normalization to GAPDH mRNA. Isolation and Treatment of Patient-Derived Kupffer Cells. Kupffer cells were isolated as previously described (Kegel et al., J. Vis. Exp., 2016, 109: e53069) from liver tissue of patients without history of chronic liver disease. Briefly, the non-parenchymal cell populations (NPCs) were purified by serial centrifugation followed by separation of Kupffer cells, exploiting fast attachment of primary macrophages to plastic within 20 minutes. Cells were cultured in RPMI 1640 Medium with GlutaMAX™-I supplement and HEPES and supplemented with 10% FBS and gentamycin (0.05 mg/mL). […]
In general terms: In qPCR the cycle at which signal appears reflects the starting amount.

For the molecule `CNC(=C[N+](=O)[O-])NCCSCc1csc(CN(C)C)n1` [Nizatidine, N-[2-[[[2-[(dimethylamino)methyl]-4-thizaolyl]methyl]thio]ethyl]-N′-methyl-2-nitro-1,1-ethene-diamine], the pro-inflammatory cytokine expression entry is “direct effect”.
